Experiment: Solubility profile of ruxolitinib phosphate in buffer solutions at 37° C.
Assay type: physicochemical
Description: Development of stable and palatable oral solution formulation for ruxolitinib is challenging due to pH dependent solubility (see Table 2) of the drug substance with mainly oxidation degradation products at higher temperatures/moisture content and/or in presence of oxygen.

- solubility (aqueous buffer, Buffer solution pH 3.3): ≥ 520 µg/mL
- solubility (aqueous buffer, Buffer solution pH 4.3): 350 µg/mL
- solubility (aqueous buffer, Buffer solution pH 5.3): 290 µg/mL
- solubility (aqueous buffer, Buffer solution pH 7.5): 150 µg/mL
- solubility (aqueous buffer, Buffer solution pH 8.0): 170 µg/mL
- solubility (simulated gastric fluid, Buffer solution pH 1.0): ≥ 540 µg/mL
SMILES: N#CC[C@H](C1CCCC1)n1cc(-c2ncnc3[nH]ccc23)cn1 [ruxolitinib phosphate]
